Reference: the supplement of paper PMC10307832

Tests used:
Assay in all cases: relative viability (nuclei count vs DMSO), 5 days (fraction); higher = more cells survive
[1] = compound: C1=CC=C2C(=C1)N=C(S2)C(C#N)C3=NC(=NC=C3)NCCC4=CN=CC=C4 + NC(=O)Nc1cc(-c2cccc(F)c2)sc1C(=O)N[C@H]1CCCNC1 [AZD7762] (partner 0.2 µM)
How it was run: (§1)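 Lung cancer cell lines, seeded in 1536-well plates, were treated the following day by pin tool with a single drug or with five library-drug doses (not always all listed) in √10 steps on top of a fixed anchor-drug dose. Cells were fixed and nuclei stained in one step after 5 days, and nuclei were counted. Relative viability is the nuclei count for treated wells divided by that for vehicle wells, reported as medians of duplicate plates.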

[2] = compound: C1=CC=C2C(=C1)N=C(S2)C(C#N)C3=NC(=NC=C3)NCCC4=CN=CC=C4 + COc1cccc2cc(-c3nc([C@H]4CC[C@H](C(=O)O)CC4)n4ncnc(N)c34)[nH]c12 [OSI-027] (partner 0.5 µM)
How it was run: as §1

[3] = compound: COc1cc2/c(=N/c3ccc(Br)cc3F)nc[nH]c2cc1OCC1CCN(C)CC1 [Vandetanib] + COc1cc2c(Oc3ccc(NC(=O)C4(C(=O)Nc5ccc(F)cc5)CC4)cc3F)ccnc2cc1OCCCN1CCOCC1 [Foretinib] (partner 0.25 µM)
How it was run: as §1

[4] = compound: COc1cc(N2CCC(N3CCN(C)CC3)CC2)ccc1Nc1ncc(Cl)c(Nc2ccccc2S(=O)(=O)C(C)C)n1 [NVP-TAE684] + Cc1nc(Nc2ncc(C(=O)Nc3c(C)cccc3Cl)s2)cc(N2CCN(CCO)CC2)n1 [Dasatinib] (partner 0.075 µM)
How it was run: as §1

## LCLC-97TM1
[1]; first compound 0.005 µM
  relative viability: 0.153
[1]; first compound 0.01581 µM
  relative viability: 0.192
[1]; first compound 0.05 µM
  relative viability: 0.342
[1]; first compound 0.1581 µM
  relative viability: 0.291
[1]; first compound 0.5 µM
  relative viability: 0.21
[2]; first compound 0.005 µM
  relative viability: 0.562
[2]; first compound 0.01581 µM
  relative viability: 0.701
[2]; first compound 0.05 µM
  relative viability: 0.537
[2]; first compound 0.1581 µM
  relative viability: 0.607
[2]; first compound 0.5 µM
  relative viability: 0.572
[3]; first compound 0.02 µM
  relative viability: 1
[3]; first compound 0.06325 µM
  relative viability: 0.904
[3]; first compound 0.2 µM
  relative viability: 0.997
[3]; first compound 0.6325 µM
  relative viability: 0.942
[3]; first compound 2 µM
  relative viability: 0.868
[4]; first compound 0.2 µM
  relative viability: 0.894
[4]; first compound 0.6325 µM
  relative viability: 0.792
[4]; first compound 2 µM
  relative viability: 0.275

## ABC-1
[1]; first compound 0.005 µM
  relative viability: 0.913
[1]; first compound 0.01581 µM
  relative viability: 0.809
[1]; first compound 0.05 µM
  relative viability: 0.789
[1]; first compound 0.1581 µM
  relative viability: 0.921
[1]; first compound 0.5 µM
  relative viability: 0.848
[2]; first compound 0.005 µM
  relative viability: 0.592
[2]; first compound 0.01581 µM
  relative viability: 0.407
[2]; first compound 0.05 µM
  relative viability: 0.51
[2]; first compound 0.1581 µM
  relative viability: 0.606
[2]; first compound 0.5 µM
  relative viability: 0.517
[3]; first compound 0.02 µM
  relative viability: 0.971
[3]; first compound 0.06325 µM
  relative viability: 1.03
[3]; first compound 0.2 µM
  relative viability: 0.28
[3]; first compound 0.6325 µM
  relative viability: 1
[3]; first compound 2 µM
  relative viability: 0.854
[4]; first compound 0.2 µM
  relative viability: 0.584
[4]; first compound 0.6325 µM
  relative viability: 0.423
[4]; first compound 2 µM
  relative viability: 0.237

## NCI-H596
[1]; first compound 0.005 µM
  relative viability: 0.985
[1]; first compound 0.01581 µM
  relative viability: 1.31
[1]; first compound 0.05 µM
  relative viability: 1
[1]; first compound 0.1581 µM
  relative viability: 1.2
[1]; first compound 0.5 µM
  relative viability: 1.09
[2]; first compound 0.005 µM
  relative viability: 0.541
[2]; first compound 0.01581 µM
  relative viability: 0.682
[2]; first compound 0.05 µM
  relative viability: 0.595
[2]; first compound 0.1581 µM
  relative viability: 0.826
[2]; first compound 0.5 µM
  relative viability: 0.674
[3]; first compound 0.02 µM
  relative viability: 0.918
[3]; first compound 0.06325 µM
  relative viability: 0.785
[3]; first compound 0.2 µM
  relative viability: 0.741
[3]; first compound 0.6325 µM
  relative viability: 0.838
[3]; first compound 2 µM
  relative viability: 0.731
[4]; first compound 0.2 µM
  relative viability: 0.629
[4]; first compound 0.6325 µM
  relative viability: 0.397
[4]; first compound 2 µM
  relative viability: 0.286

## PC-14
[1]; first compound 0.005 µM
  relative viability: 0.334
[1]; first compound 0.01581 µM
  relative viability: 0.238
[1]; first compound 0.05 µM
  relative viability: 0.396
[1]; first compound 0.1581 µM
  relative viability: 0.514
[1]; first compound 0.5 µM
  relative viability: 0.302
[2]; first compound 0.005 µM
  relative viability: 0.606
[2]; first compound 0.01581 µM
  relative viability: 0.923
[2]; first compound 0.05 µM
  relative viability: 0.669
[2]; first compound 0.1581 µM
  relative viability: 1.22
[2]; first compound 0.5 µM
  relative viability: 0.729
[3]; first compound 0.02 µM
  relative viability: 0.955
[3]; first compound 0.06325 µM
  relative viability: 0.916
[3]; first compound 0.2 µM
  relative viability: 0.959
[3]; first compound 0.6325 µM
  relative viability: 0.447
[3]; first compound 2 µM
  relative viability: 0.196
[4]; first compound 0.2 µM
  relative viability: 0.242
[4]; first compound 0.6325 µM
  relative viability: 0.11
[4]; first compound 2 µM
  relative viability: 0.0369

## H3255
[1]; first compound 0.005 µM
  relative viability: 0.993
[1]; first compound 0.01581 µM
  relative viability: 0.876
[1]; first compound 0.05 µM
  relative viability: 0.912
[1]; first compound 0.1581 µM
  relative viability: 0.916
[1]; first compound 0.5 µM
  relative viability: 0.829
[2]; first compound 0.005 µM
  relative viability: 0.732
[2]; first compound 0.01581 µM
  relative viability: 0.596
[2]; first compound 0.05 µM
  relative viability: 0.608
[2]; first compound 0.1581 µM
  relative viability: 0.581
[2]; first compound 0.5 µM
  relative viability: 0.702
[3]; first compound 0.02 µM
  relative viability: 0.904
[3]; first compound 0.06325 µM
  relative viability: 0.824
[3]; first compound 0.2 µM
  relative viability: 0.858
[3]; first compound 0.6325 µM
  relative viability: 0.689
[3]; first compound 2 µM
  relative viability: 0.345
[4]; first compound 0.2 µM
  relative viability: 0.318
[4]; first compound 0.6325 µM
  relative viability: 0.274
[4]; first compound 2 µM
  relative viability: 0.23

## NCI-H441
[1]; first compound 0.005 µM
  relative viability: 1.02
[1]; first compound 0.01581 µM
  relative viability: 1.14
[1]; first compound 0.05 µM
  relative viability: 1.28
[1]; first compound 0.1581 µM
  relative viability: 1.02
[1]; first compound 0.5 µM
  relative viability: 0.986
[2]; first compound 0.01581 µM
  relative viability: 0.669
[2]; first compound 0.05 µM
  relative viability: 0.556
[2]; first compound 0.1581 µM
  relative viability: 0.719
[2]; first compound 0.5 µM
  relative viability: 0.487
[3]; first compound 0.02 µM
  relative viability: 1.05
[3]; first compound 0.06325 µM
  relative viability: 0.816
[3]; first compound 0.2 µM
  relative viability: 0.264
[3]; first compound 0.6325 µM
  relative viability: 0.978
[3]; first compound 2 µM
  relative viability: 1.01
[4]; first compound 0.2 µM
  relative viability: 0.461
[4]; first compound 0.6325 µM
  relative viability: 0.398
[4]; first compound 2 µM
  relative viability: 0.216

## LK-2
[1]; first compound 0.005 µM
  relative viability: 0.347
[1]; first compound 0.01581 µM
  relative viability: 0.41
[1]; first compound 0.05 µM
  relative viability: 0.488
[1]; first compound 0.1581 µM
  relative viability: 0.454
[1]; first compound 0.5 µM
  relative viability: 0.445
[2]; first compound 0.005 µM
  relative viability: 0.2
[2]; first compound 0.01581 µM
  relative viability: 0.187
[2]; first compound 0.05 µM
  relative viability: 0.201
[2]; first compound 0.1581 µM
  relative viability: 0.189
[2]; first compound 0.5 µM
  relative viability: 0.195
[3]; first compound 0.02 µM
  relative viability: 1.19
[3]; first compound 0.06325 µM
  relative viability: 1.16
[3]; first compound 0.2 µM
  relative viability: 0.88
[3]; first compound 0.6325 µM
  relative viability: 1.22
[3]; first compound 2 µM
  relative viability: 1.08
[4]; first compound 0.2 µM
  relative viability: 0.236
[4]; first compound 0.6325 µM
  relative viability: 0.243
[4]; first compound 2 µM
  relative viability: 0.185

## LU99A
[1]; first compound 0.005 µM
  relative viability: 0.444
[1]; first compound 0.01581 µM
  relative viability: 0.469
[1]; first compound 0.1581 µM
  relative viability: 0.343
[1]; first compound 0.5 µM
  relative viability: 0.262
[2]; first compound 0.005 µM
  relative viability: 0.269
[2]; first compound 0.01581 µM
  relative viability: 0.278
[2]; first compound 0.05 µM
  relative viability: 0.297
[2]; first compound 0.1581 µM
  relative viability: 0.323
[2]; first compound 0.5 µM
  relative viability: 0.3
[3]; first compound 0.02 µM
  relative viability: 0.842
[3]; first compound 0.06325 µM
  relative viability: 0.757
[3]; first compound 0.2 µM
  relative viability: 0.878
[3]; first compound 0.6325 µM
  relative viability: 0.783
[3]; first compound 2 µM
  relative viability: 0.823
[4]; first compound 0.2 µM
  relative viability: 0.475
[4]; first compound 0.6325 µM
  relative viability: 0.392
[4]; first compound 2 µM
  relative viability: 0.179

## NCI-H322M
[1]; first compound 0.005 µM
  relative viability: 0.522
[1]; first compound 0.01581 µM
  relative viability: 0.522
[1]; first compound 0.05 µM
  relative viability: 0.436
[1]; first compound 0.1581 µM
  relative viability: 0.564
[1]; first compound 0.5 µM
  relative viability: 0.56
[2]; first compound 0.005 µM
  relative viability: 0.515
[2]; first compound 0.01581 µM
  relative viability: 0.463
[2]; first compound 0.05 µM
  relative viability: 0.529
[2]; first compound 0.1581 µM
  relative viability: 0.585
[2]; first compound 0.5 µM
  relative viability: 0.685
[3]; first compound 0.02 µM
  relative viability: 0.983
[3]; first compound 0.06325 µM
  relative viability: 0.889
[3]; first compound 0.2 µM
  relative viability: 0.959
[3]; first compound 0.6325 µM
  relative viability: 0.841
[3]; first compound 2 µM
  relative viability: 0.674
[4]; first compound 0.2 µM
  relative viability: 0.241
[4]; first compound 0.6325 µM
  relative viability: 0.223
[4]; first compound 2 µM
  relative viability: 0.246
